Test results reported in patent US20130005568A1, “SAFENED HERBICIDAL MIXTURES” (E.I. DU PONT DE NEMOURS AND COMPANY, priority 2011, published 2013).

Tests used:
[1] = tested on: Pioneer 39K40 hybrid maize; assay: Test A: visual plant response rating, postemergence herbicide treatments alone and with Compound 1; format: in vivo, Zea mays L. spp. indentata Sturt.; settings: Compound 1 alone 125 g ai/ha; Test A
Method: (§1) For all of the following biological tests, plant response ratings were based on a 0-100 scale where zero is growth equivalent to that of untreated plants (no plant response) and 100 represents no additional growth occurring after herbicide treatment.
Pioneer 39K40 hybrid maize used in this test (and also Tests B and C) is particularly sensitive to herbicides that inhibit the acetohydroxy acid synthase enzyme. Herbicide mixtures were dissolved/dispersed in a non-phytotoxic liquid carrier and were sprayed postemergence to Pioneer 39K40 hybrid maize (Zea mays L. spp. indentata Sturt.) in the third collar growth stage (extended leaf height was 50-60 cm). Treated plants were grown under greenhouse conditions for two weeks before visual evaluations of plant responses were recorded.

spring wheat = assay: Test E: postemergence plant response rating; format: in vivo, Triticum aestivum L.; settings: Compound 1 alone 125 g ai/ha; Test E plants
Text: as §1
(§2) Herbicide mixtures were formulated, dissolved/dispersed in water containing 0.25% non-ionic surfactant, sprayed postemergence to the crops: winter wheat (Triticum aestivum L.), spring wheat (Triticum aestivum L.), winter barley (Hordeum vulgare L.) and spring barley (Hordeum vulgare L.), and the weeds: blackgrass (Alopecurus myosuroides Huds.), lambsquarters (Chenopodium album L.) and pigweed (Amaranthus retroflexus L.). Treated plants were grown under greenhouse conditions for two weeks before visual evaluations of plant responses were recorded.

winter wheat = assay: Test E: postemergence plant response rating; format: in vivo, Triticum aestivum L.; settings: Compound 1 alone 125 g ai/ha; Test E plants
Text: as §1, §2

blackgrass [2] = assay: Test E: postemergence plant response rating; format: in vivo, Alopecurus myosuroides Huds.; settings: Compound 1 alone 125 g ai/ha; Test E plants
Text: as §1, §2

lambsquarters [3] = assay: Test E: postemergence plant response rating; format: in vivo, Chenopodium album L.; settings: Compound 1 alone 125 g ai/ha; Test E plants
Text: as §1, §2

winter barley = assay: Test F: preemergence plant response rating; format: in vivo, Hordeum vulgare L.; settings: Compound 1 alone 125 g ai/ha; Test F plants
Text: as §1
(§3) Herbicide mixtures were formulated, dissolved/dispersed in water, and sprayed preemergence to the crops: winter wheat (Triticum aestivum L.) and winter barley (Hordeum vulgare L.), and the weed: blackgrass (Alopecurus myosuroides Huds). Treated plants were grown under greenhouse conditions for three weeks before visual evaluations of plant responses were recorded.

blackgrass [4] = assay: Test F: preemergence plant response rating; format: in vivo, Alopecurus myosuroides Huds; settings: Compound 1 alone 125 g ai/ha; Test F plants
Text: as §1, §3

Zoysia grass = assay: Test G: turf grass and weed postemergence plant response rating; format: in vivo, Zoysia japonica Steud.; settings: Compound 1 alone 125 g ai/ha; Test G plants
Text: as §1
(§4) Plants of the turf grass species: zoysia (Zoysia japonica Steud.), bermudagrass (Cynodon dactylon (L.) Pers.), tall fescue (Festuca arundinacea Shreib.), creeping bentgrass (Agrostis stoonoifera L.), perennial ryegrass (Lolium perenne L.) and hard fescue (Festuca species) were grown under greenhouse conditions for four months. Plants were clipped as needed to plant heights of 5-10 cm. Weeds typically found in turf: annual bluegrass (Poa annua L.), common chickweed (Stellaria media (L.) Vill.), large crabgrass (Digitaria sanguinales (L.) Scop.), dandelion (Taraxacum officinale Weber in Wiggers), goosegrass (Eleusine indica (L.) Gaertn.), henbit (Lamium amplexicaule L.), venice mallow (Hibiscus trionium L.) and purple nutsedge (Cyperus rotundus L.) were also grown under greenhouse conditions so that plants were 5-20 cm tall when they were treated. Herbicide mixtures were formulated, dissolved/dispersed in water containing 0.25% non-ionic surfactant, and sprayed postemergence to these turf grasses and weeds. Treated plants were grown under greenhouse conditions for three weeks before visual evaluations of plant responses were recorded.

Hard fescue = assay: as above; format: in vivo, Festuca species; settings: Compound 1 alone 125 g ai/ha; Test G plants
Text: as §1, §4

Chickweed = assay: as above; format: in vivo, Stellaria media (L.) Vill.; settings: Compound 1 alone 125 g ai/ha; Test G plants
Text: as §1, §4

Large crabgrass = assay: as above; format: in vivo, Digitaria sanguinales (L.) Scop.; settings: Compound 1 alone 125 g ai/ha; Test G plants
Text: as §1, §4

Dandelion = assay: as above; format: in vivo, Taraxacum officinale Weber in Wiggers; settings: Compound 1 alone 125 g ai/ha; Test G plants
Text: as §1, §4

Goosegrass = assay: as above; format: in vivo, Eleusine indica (L.) Gaertn.; settings: Compound 1 alone 125 g ai/ha; Test G plants
Text: as §1, §4

Henbit = assay: as above; format: in vivo, Lamium amplexicaule L.; settings: Compound 1 alone 125 g ai/ha; Test G plants
Text: as §1, §4

Purple nutsedge = assay: as above; format: in vivo, Cyperus rotundus L.; settings: Compound 1 alone 125 g ai/ha; Test G plants
Text: as §1, §4

soybean = assay: Test I: postemergence plant response rating; format: in vivo, Glycine max (L.) Merr.; settings: Compound 1 alone 125 g ai/ha; Test I plants
Text: as §1
(§5) Herbicide mixtures were formulated, dissolved/dispersed in water containing 0.25% non-ionic surfactant, and sprayed postemergence to the crop: soybean (Glycine max (L.) Merr.) at the 2-leaf growth stage and to weeds: lambsquarters (Chenopodium album L.) and velvetleaf (Abutilon theophrasti Medik.). Weed species were 5-10 cm tall when treated. Treated plants were grown under greenhouse conditions for two weeks before visual evaluations of plant responses were recorded.

lambsquarters [5] = assay: Test I: postemergence plant response rating; format: in vivo, Chenopodium album L.; settings: Compound 1 alone 125 g ai/ha; Test I plants
Text: as §1, §5

sugarcane = assay: Test J: sugarcane postemergence plant response rating, field conditions; format: in vivo, Saccharum officinarum L.; settings: Compound 1 alone 140 g ai/ha; Test J
Method: as §1
(§6) Herbicide mixtures were formulated, dissolved/dispersed in water containing 0.25% non-ionic surfactant, and sprayed postemergence to sugarcane (Saccharum officinarum L.) approximately 20-40 cm tall (extended leaf height). This test was conducted under field conditions. Visual evaluations of plant responses were recorded four weeks after the plants were treated.

Alexandergrass = assay: Test K: pasture grass postemergence plant response rating, field conditions; format: in vivo, Brachiaria plantaginea (Link) A. S. Hitchc.; settings: Compound 1 alone 140 g ai/ha; Test K plants
Text: as §1
as §6, with “the pasture grasses: Surinam grass (Brachiaria decumbens Stapf), palisade grass (Brachiaria brizantha (Hochst. ex A. Rich) Stapf) and Alexandergrass (Brachiaria plantaginea (Link) A. S. Hitchc.)” for “sugarcane (Saccharum officinarum L.)”, “10-30” for “20-40”

Measured: injury, Compound 1 alone

Cc1ccccc1S(=O)(=O)NC(N)=O [Compound 1, N-(aminocarbonyl)-2-methylbenzenesulfonamide]
no injury: all assays above
